Test results taken from patent publication US20240159750A1, “METHODS FOR DIAGNOSIS AND TREATMENT OF COVID-19” (priority 2021, published 2024).

Tests used:
[1] = tested on: C2 and PC cells; type: cell-based, rat; details: serum-starved C2 cells (TYMP-overexpressing VSMC)
[2] = tested on: hospitalized COVID-19 patients; details: interim report, WHO solidarity trial; cited from earlier work

Molecule	NF-κB activation (p65 phosphorylation at T254) [1]	effect on hospitalized COVID-19 patients [2]
Pam3CSK4	dramatically increased	–
Cc1cccc(C)c1OCC(=O)N[C@@H](Cc1ccccc1)[C@@H](O)C[C@H](Cc1ccccc1)NC(=O)[C@H](C(C)C)N1CCCNC1=O [lopinavir]	–	little or no effect
CCN(CCO)CCCC(C)Nc1ccnc2cc(Cl)ccc12 (stereo not drawn) [hydroxychloroquine]	–	little or no effect
